pIC50, pKi: −log10 of the molar value.
Assays:
Melanocortin receptor 3 = Melanocortin receptor 3 (Homo sapiens, UniProt P41968); assay: Binding affinity to MC3 receptor
Melanocortin receptor 5 = Melanocortin receptor 5 (Homo sapiens, UniProt P33032); assay: Binding affinity to MC5 receptor
Melanocortin receptor 4 [1] = target: T1, Melanocortin receptor 4 (Homo sapiens, UniProt P32245); assay: Antagonist activity at human MC4 receptor expressed in cells assessed as inhibition of alpha-MSH-stimulated cAMP production; assay type: functional, cell-based
[2] = Plasma clearance in rat at 5 mg/kg, iv; assay type: ADME, organism-based; set-up: dose 5 mg/kg, route intravenous
[3] = Volume of distribution in rat at 5 mg/kg, iv; assay type: ADME, organism-based; set-up: dose 5 mg/kg, route intravenous; settings: in vivo
[4] = Half life in rat at 5 mg/kg, iv; assay type: ADME, organism-based; set-up: dose 5 mg/kg, route intravenous; settings: in vivo
Brain = assay: Drug level in rat brain rat at 5 mg/kg, iv; assay type: ADME, organism-based; set-up: dose 5 mg/kg, route intravenous; settings: in vivo
[5] = Ratio of drug level in brain to plasma in rat at 5 mg/kg, iv after 1 hr; assay type: ADME, organism-based; set-up: dose 5 mg/kg, route intravenous
[6] = Oral bioavailability in rat at 10 mg/kg; assay type: ADME, organism-based; settings: in vivo
[7] = AUC in rat at 10 mg/kg, po; assay type: ADME, organism-based; set-up: dose 10 mg/kg, route oral; settings: plasma
[8] = Lipophilicity, log D of the compound; assay type: physicochemical; settings: octanol/water
[9] = Metabolic stability assessed as intrinsic clearance in human liver microsomes; assay type: ADME, Microsome
Melanocortin receptor 4 [10] = target: T1, Melanocortin receptor 4
Description: Binding affinity to human MC4 receptor

T1 sequence (P32245 whole entry): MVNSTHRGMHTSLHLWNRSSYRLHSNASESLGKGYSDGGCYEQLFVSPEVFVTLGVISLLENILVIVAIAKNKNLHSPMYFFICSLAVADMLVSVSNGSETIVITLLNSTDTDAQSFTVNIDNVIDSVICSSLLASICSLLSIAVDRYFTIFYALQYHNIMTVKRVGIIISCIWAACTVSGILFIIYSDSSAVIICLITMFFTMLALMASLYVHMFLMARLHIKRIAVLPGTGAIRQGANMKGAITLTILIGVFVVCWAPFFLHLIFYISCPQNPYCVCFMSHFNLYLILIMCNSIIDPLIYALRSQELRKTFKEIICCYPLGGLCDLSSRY
Melanocortin receptor 5, sequence (P33032 whole entry): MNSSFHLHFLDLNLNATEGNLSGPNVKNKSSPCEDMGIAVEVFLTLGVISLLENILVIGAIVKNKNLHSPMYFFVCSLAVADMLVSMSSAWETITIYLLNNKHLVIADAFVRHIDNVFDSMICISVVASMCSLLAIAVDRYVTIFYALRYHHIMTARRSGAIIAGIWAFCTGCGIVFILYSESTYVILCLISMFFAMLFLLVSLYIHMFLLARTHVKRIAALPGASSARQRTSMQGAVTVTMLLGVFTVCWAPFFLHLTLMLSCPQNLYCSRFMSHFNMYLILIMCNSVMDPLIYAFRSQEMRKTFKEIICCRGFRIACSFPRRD
Melanocortin receptor 3, sequence (P41968 whole entry): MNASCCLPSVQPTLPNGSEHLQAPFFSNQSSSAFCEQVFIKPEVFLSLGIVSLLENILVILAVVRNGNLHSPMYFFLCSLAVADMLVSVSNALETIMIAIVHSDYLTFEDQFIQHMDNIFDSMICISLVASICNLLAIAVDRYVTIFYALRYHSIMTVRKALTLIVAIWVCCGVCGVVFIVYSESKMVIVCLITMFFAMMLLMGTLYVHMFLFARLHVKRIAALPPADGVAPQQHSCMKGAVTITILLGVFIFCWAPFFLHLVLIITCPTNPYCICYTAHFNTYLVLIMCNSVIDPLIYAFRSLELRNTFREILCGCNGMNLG

SMILES: CC(C)CC(O)c1ccccc1N1CCN(C(=O)[C@@H](Cc2ccc(Cl)cc2Cl)NC(=O)CCN)CC1 (stereo partly drawn)
- pKi (Melanocortin receptor 3): 5.77
- pKi (Melanocortin receptor 5): 6.01
- pIC50 (Melanocortin receptor 4 [1]): 6.59
- clearance [2]: 64.5 mL/min/kg
- Vd [3]: 42.3 L/kg
- half-life [4]: 7.6 h
- Drug uptake (Brain): 117 ng/g
- Kp at 1 h [5]: 0.53
- bioavailability [6]: 1.2%
- AUC [7]: 30 ng·h/mL
- logD [8]: 2.2
- CLint scaled [9]: 14.7 mL/min/kg
- pKi (Melanocortin receptor 4 [10]): 8.09
